Measurements taken from patent US20260306640A1, “TECHNOLOGIES TARGETING CELL STATES” (Auron Therapeutics, Inc., priority 2023, published 2026).

Experiments:
KAT2A = KAT2A (Homo sapiens, UniProt Q92830); experiment: KAT2A degradation, Western Blot (Jess), NCI-H1048 cells; type: cell-based; design: degrader, Western blot (Jess); settings: NCI-H1048 cells, KAT2A, 24 h, Western Blot, vs DMSO; read-out: KAT2A NCI-H1048 DC50
Description: (§1) MOLM-13 cells or NCI-H1048 cells were used for Western Blot analysis of KAT2A degradation. KAT2B degradation can be measured in a similar manner with NCI-H1048 cells.
(§2) H1048 cells were maintained at 37° C. in 5% CO2 and 90% humidity in HITES medium with 5% fetal bovine serum (FBS). HITES medium was […] with the following additions: 0.005 mg/ml Insulin, 0.01 mg/ml Transferrin, 30 nM Sodium selenite, 10 nM Hydrocortisone, 10 nM beta-estradiol, and extra 2 mM L-glutamine (for final concentration of 4.5 mM). Cells were plated in full media at 1 million cells/2 mL in a 6-well tissue culture treated plate with or without compounds for 24 h at 37° C. in 5% CO2.
(§3) MOLM-13 cells or NCI-H1048 cells were washed with PBS, then lysed with RIPA buffer containing 1×protease and phosphatase inhibitors (SantaCruz Biotechnologies Cat #sc-24948A). Protein was isolated by centrifugation at 12,000×g for 10 minutes at 4° C. and supernatant was collected. Protein was quantified via Bradford assay. Samples were diluted to 4 μg lysate in 16 μL RIPA buffer and then 4 μL of Jess Sample Buffer. Samples were heated at 95° C. for 5 minutes. Samples were loaded onto 12-230 kDa Jess™ Separation Module, 8×25 capillary cartridges (SM-W004, Biotechne). Antibodies loaded were: Primary antibody for KAT2A (GCN5L2 (C26A10) Rabbit mAb (3305, CST)) and for KAT2B (PCAF (C14G9)) Rabbit mAb (3378, CST) at 1:1000 and Anti-Rabbit Detection Module for Jess™ (Cat No #DM-001, Biotechne). Signal was detected by chemiluminescence.
(§4) DC50 values were determined from percent reduction of protein as compared to the DMSO control.

KAT2B = KAT2B (Homo sapiens, UniProt Q92831); experiment: KAT2B degradation, Western Blot (Jess), NCI-H1048 cells; type: cell-based; design: degrader, Western blot (Jess); settings: NCI-H1048 cells, KAT2B, 24 h, Western Blot, vs DMSO; read-out: KAT2B NCI-H1048 DC50
Description: as §1, §2, §3, §4

Chain of KAT2A (Q92830 whole entry): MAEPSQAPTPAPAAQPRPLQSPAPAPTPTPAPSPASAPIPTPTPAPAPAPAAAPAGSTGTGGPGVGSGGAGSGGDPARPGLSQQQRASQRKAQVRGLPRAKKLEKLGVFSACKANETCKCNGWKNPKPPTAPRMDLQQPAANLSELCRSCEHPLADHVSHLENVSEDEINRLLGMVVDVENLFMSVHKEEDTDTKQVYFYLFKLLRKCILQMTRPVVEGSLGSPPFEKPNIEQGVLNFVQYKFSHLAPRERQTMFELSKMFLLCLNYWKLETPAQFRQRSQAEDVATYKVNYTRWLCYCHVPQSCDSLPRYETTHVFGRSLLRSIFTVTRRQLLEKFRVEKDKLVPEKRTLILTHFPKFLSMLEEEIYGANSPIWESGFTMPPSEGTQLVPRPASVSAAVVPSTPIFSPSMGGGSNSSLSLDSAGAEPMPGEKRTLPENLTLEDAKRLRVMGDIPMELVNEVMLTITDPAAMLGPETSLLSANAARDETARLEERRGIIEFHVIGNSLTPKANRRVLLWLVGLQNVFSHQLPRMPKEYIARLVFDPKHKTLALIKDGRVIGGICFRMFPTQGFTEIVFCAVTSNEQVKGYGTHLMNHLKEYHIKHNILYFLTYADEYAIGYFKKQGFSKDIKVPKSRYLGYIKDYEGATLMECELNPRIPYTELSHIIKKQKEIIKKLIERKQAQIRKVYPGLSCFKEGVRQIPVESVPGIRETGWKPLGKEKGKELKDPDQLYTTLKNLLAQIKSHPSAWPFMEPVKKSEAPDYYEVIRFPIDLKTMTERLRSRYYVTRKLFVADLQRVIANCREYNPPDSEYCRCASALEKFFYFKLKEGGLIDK
Chain of KAT2B (Q92831 whole entry): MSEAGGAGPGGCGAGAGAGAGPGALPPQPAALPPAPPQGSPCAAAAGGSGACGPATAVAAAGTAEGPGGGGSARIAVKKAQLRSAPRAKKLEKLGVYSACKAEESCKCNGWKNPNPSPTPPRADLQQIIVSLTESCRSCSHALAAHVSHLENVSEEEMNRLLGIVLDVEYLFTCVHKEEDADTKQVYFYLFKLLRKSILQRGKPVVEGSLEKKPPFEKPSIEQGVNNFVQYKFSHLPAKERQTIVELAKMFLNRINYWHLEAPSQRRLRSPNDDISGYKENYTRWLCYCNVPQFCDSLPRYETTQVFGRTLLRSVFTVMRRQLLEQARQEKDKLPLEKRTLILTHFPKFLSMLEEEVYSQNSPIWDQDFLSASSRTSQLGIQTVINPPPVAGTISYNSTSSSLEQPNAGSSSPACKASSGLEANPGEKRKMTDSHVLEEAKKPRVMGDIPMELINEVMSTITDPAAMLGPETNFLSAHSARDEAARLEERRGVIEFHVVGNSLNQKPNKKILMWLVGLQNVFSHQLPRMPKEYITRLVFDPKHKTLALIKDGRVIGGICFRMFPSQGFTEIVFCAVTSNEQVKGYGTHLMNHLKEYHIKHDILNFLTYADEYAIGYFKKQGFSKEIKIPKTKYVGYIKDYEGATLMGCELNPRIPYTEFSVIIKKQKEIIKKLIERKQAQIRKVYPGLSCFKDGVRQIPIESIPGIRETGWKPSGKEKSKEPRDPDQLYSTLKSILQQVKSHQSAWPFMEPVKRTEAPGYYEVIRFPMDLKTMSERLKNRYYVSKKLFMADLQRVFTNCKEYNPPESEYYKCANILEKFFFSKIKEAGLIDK

Structure (SMILES)	DC50 (KAT2A) [nM]	DC50 (KAT2B) [nM]
CN1C[C@H](Nc2cnn(C)c(=O)c2Br)C[C@H](c2ccc(CN3C4CC3CN(c3cccc(C5CCC(=O)NC5=O)c3)C4)cc2)C1 (stereo partly shown) [Compound 353]	< 1	> 30
CN1C[C@H](Nc2cnn(C)c(=O)c2Cl)C[C@H](c2ccc(C(=O)N3CCC4(CCN(Cc5ccc(C6CCC(=O)NC6=O)c(F)c5)CC4)CC3)cc2)C1 (stereo partly shown) [Compound 215]	< 1	< 1
Cc1c(N[C@@H]2C[C@H](c3ccc(C(=O)N4CCC5(CCC(c6ccc(C7CCC(=O)NC7=O)cc6)CC5)CC4)cc3)CN(C)C2)ccn(C)c1=O (stereo partly shown) [Compound 315]	< 1	1 to 30
CN1C[C@H](Nc2cnn(C)c(=O)c2Br)C[C@H](c2ccc(C(=O)N3CCC4(CC3)CCN(c3ccc(C5CCC(=O)NC5=O)c(C(F)(F)F)c3)CC4)cc2)C1 (stereo partly shown) [Compound 221]	> 30	> 30
Cc1cc(N2CCC3(CCN(C(=O)c4ccc([C@H]5C[C@@H](Nc6cnn(C)c(=O)c6Br)CN(C)C5)cc4)CC3)CC2)cc(F)c1C1CCC(=O)NC1=O (stereo partly shown) [Compound 2-69]	< 1	< 1
CN1C[C@H](Nc2cnn(C)c(=O)c2Cl)C[C@H](c2ccc(CN3C4CC3CN(c3cccc(C5CCC(=O)NC5=O)c3)C4)cc2)C1 (stereo partly shown) [Compound 354]	1 to 30	> 30
CN1C[C@H](Nc2cnn(C)c(=O)c2Cl)C[C@H](c2ccc(C(=O)N3CCC4(CC3)CCN(c3cc(C5CCC(=O)NC5=O)ccn3)CC4)cc2)C1 (stereo partly shown) [Compound 234]	< 1	< 1
CN1C[C@H](Nc2cnn(C)c(=O)c2Br)C[C@H](c2ccc(C(=O)N3CCC(Cc4ccc(C5CCC(=O)NC5=O)c(F)c4)CC3)cc2)C1 (stereo partly shown) [Compound 328]	< 1	< 1
CN1C[C@H](Nc2cnn(C)c(=O)c2Cl)C[C@H](c2ccc(C(=O)N3CCC(Oc4ccc(C5CCC(=O)NC5=O)c(F)c4)CC3)cc2)C1 (stereo partly shown) [Compound 203]	< 1	1 to 30
CN1C[C@H](Nc2cnn(C)c(=O)c2Cl)C[C@H](c2ccc(C(=O)N3CCC(c4ccc5c(C6CCC(=O)NC6=O)cncc5c4)CC3)cc2)C1 (stereo partly shown) [Compound 331]	< 1	> 30
CN1C[C@H](Nc2cnn(C)c(=O)c2Cl)C[C@H](c2ccc(C(=O)N3CCC4(CC3)CCN(c3ccc(C5CCC(=O)NC5=O)c(F)c3)CC4)cc2)C1 (stereo partly shown) [Compound 317]	< 1	< 1
CN1C[C@H](Nc2cnn(C)c(=O)c2Cl)C[C@H](c2ccc(CN3CCN(c4ccc(F)c(C5CCC(=O)NC5=O)c4)CC3)cc2)C1 (stereo partly shown) [Compound 341]	< 1	1 to 30
Cc1cc(C2CCC(=O)NC2=O)c(F)cc1N1CCC2(CCN(C(=O)c3ccc([C@H]4C[C@@H](Nc5cnn(C)c(=O)c5Cl)CN(C)C4)cc3)CC2)CC1 (stereo partly shown) [Compound 218]	< 1	1 to 30
C[C@@H]1CN(c2cccc(C3CCC(=O)NC3=O)c2)C[C@H](C)N1Cc1ccc([C@H]2C[C@@H](Nc3cnn(C)c(=O)c3Br)CN(C)C2)cc1 (stereo partly shown) [Compound 370]	1 to 30	–
COc1cc(N2CCC3(CCN(C(=O)c4ccc([C@H]5C[C@@H](Nc6cnn(C)c(=O)c6Br)CN(C)C5)cc4)CC3)CC2)cc(F)c1C1CCC(=O)NC1=O (stereo partly shown) [Compound 280]	1 to 30	–
Cc1cc(N2CCC3(CCN(C(=O)c4ccc([C@H]5C[C@@H](Nc6cnn(C)c(=O)c6Br)CN(C)C5)cc4)CC3)CC2)cc(C)c1C1CCC(=O)NC1=O (stereo partly shown) [Compound 282]	< 1	–
CN1C[C@H](Nc2cnn(C)c(=O)c2Br)C[C@H](c2ccc(CN3CCN(c4cncc(C5CCC(=O)NC5=O)c4)CC3)cc2)C1 (stereo partly shown) [Compound 345]	> 30	–
C[C@@H]1CN(c2cccc(C3CCC(=O)NC3=O)c2)C[C@H](C)N1Cc1ccc([C@H]2C[C@@H](Nc3cnn(C)c(=O)c3Cl)CN(C)C2)cc1 (stereo partly shown) [Compound 371]	1 to 30	–
CC(=O)N[C@H](C(=O)N1C[C@H](O)C[C@H]1C(=O)NCc1ccc(-c2scnc2C)cc1OCCCCNC(=O)c1ccc([C@H]2C[C@@H](Nc3cnn(C)c(=O)c3Br)CN(C)C2)cc1)C(C)(C)C [Compound 406, (2S,4R)-1-((S)-2-acetamido-3,3-dimethylbutanoyl)-N-(2-(4-(4-((3R,5R)-5-((5-bromo-1-methyl-6-oxo-1,6-dihydropyridazin-4-yl)amino)-1-methylpiperidin-3-yl)benzamido)-butoxy)-4-(4-methylthiazol-5-yl)benzyl)-4-hydroxypyrrolidine-2-carboxamide]	> 30	–
COc1cc(N2CCC3(CCN(C(=O)c4ccc([C@H]5C[C@@H](Nc6cnn(C)c(=O)c6Cl)CN(C)C5)cc4)CC3)CC2)cc(F)c1C1CCC(=O)NC1=O (stereo partly shown) [Compound 281]	1 to 30	–
Cc1c(C2CCC(=O)NC2=O)ccc(N2CCC3(CCN(C(=O)c4ccc([C@H]5C[C@@H](Nc6cnn(C)c(=O)c6Cl)CN(C)C5)cc4)CC3)CC2)c1F (stereo partly shown) [Compound 253]	< 1	–

More lines, now with the values ahead:

DC50 (KAT2A) [nM]	DC50 (KAT2B) [nM]	Structure (SMILES)
> 30	> 30	Cc1ncsc1-c1ccc(CNC(=O)[C@@H]2C[C@@H](O)CN2C(=O)[C@@H](NC(=O)COCCOCCNC(=O)c2ccc(C3CC(Nc4cnn(C)c(=O)c4Br)CN(C)C3)cc2)C(C)(C)C)cc1 (stereo partly shown) [Compound 423]
> 30	> 30	Cc1cc(N2CCC3(CCN(C(=O)c4ccc([C@H]5C[C@@H](Nc6cnn(C)c(=O)c6Cl)CN(C)C5)cc4)CC3)CC2)cc(C)c1N1CCC(=O)NC1=O [Compound 399]
> 30	> 30	CN1C[C@H](Nc2cnn(C)c(=O)c2Cl)C[C@H](c2ccc(C(=O)N3CCC4(CC3)CCN(c3ccc5c(N6CCC(=O)NC6=O)nccc5c3)CC4)cc2)C1 [Compound 376]
< 1	> 30	Cc1c(N[C@@H]2C[C@H](c3ccc(CN4CCC(c5cccc(C6CCC(=O)NC6=O)c5)C(F)(F)C4)cc3)CN(C)C2)cnn(C)c1=O (stereo partly shown) [Compound 387]
< 1	< 1	CN1C[C@H](Nc2nc3cc[nH]c3c(=O)n2C)C[C@H](c2ccc(C(=O)N3CCC4(CC3)CCN(c3ccc(C5CCC(=O)NC5=O)cc3)CC4)cc2)C1 (stereo partly drawn) [Compound 427, 3-(4-(9-(4-((3R,5R)-1-methyl-5-((3-methyl-4-oxo-4,5-dihydro-3H-pyrrolo[3,2-d]pyrimidin-2-yl)amino)piperidin-3-yl)benzoyl)-3,9-diazaspiro[5.5]undecan-3-yl)phenyl)piperidine-2,6-dione]
1 to 30	–	Cc1nnc2c3ccccc3c(N[C@@H](C)[C@H](c3ccc(C(=O)N4CCC5(CC4)CCN(c4ccc(C6CCC(=O)NC6=O)cc4)CC5)cc3)N(C)C)nn12 (stereo partly drawn) [Compound 426, 3-(4-(9-(4-((1S,2S)-1-(dimethylamino)-2-((3-methyl-[1,2,4]triazolo[3,4-a]phthalazin-6-yl)amino)propyl)benzoyl)-3,9-diazaspiro[5.5]undecan-3-yl)phenyl)piperidine-2,6-dione]
–	> 30	Cc1ncsc1-c1ccc(CNC(=O)[C@@H]2C[C@@H](O)CN2C(=O)[C@@H](NC(=O)C2CCN(C3CCN(C(=O)c4ccc([C@H]5C[C@@H](Nc6cnn(C)c(=O)c6Br)CN(C)C5)cc4)CC3)CC2)C(C)(C)C)cc1 [Compound 410]
1 to 30	–	CN1C[C@H](Nc2cnn(C)c(=O)c2Br)C[C@H](c2ccc(N3CCC4(CC3)CCN(c3cccc(CN5CCC(=O)NC5=O)c3)CC4)cc2)C1 [Compound 400]
> 30	–	Cc1nnc2c3ccccc3c(N[C@@H](C)[C@H](c3ccc(CN4CCN(c5cccc(C6CCC(=O)NC6=O)c5)CC4)cc3)N(C)C)nn12 (stereo partly drawn) [Compound 428, 3-(3-(4-(4-((1S,2S)-1-(dimethylamino)-2-((3-methyl-[1,2,4]triazolo[3,4-a]phthalazin-6-yl)amino)propyl)benzyl)piperazin-1-yl)phenyl)piperidine-2,6-dione]
1 to 30	–	CN1C[C@H](Nc2cnn(C)c(=O)c2Br)C[C@H](c2ccc(C(=O)N3CCC4(CC3)CCN(c3ccc5c(N6CCC(=O)NC6=O)cncc5c3)CC4)cc2)C1 [Compound 375]
> 30	–	CN1C[C@H](Nc2cnn(C)c(=O)c2Cl)C[C@H](c2ccc(CN3CCN(c4cccc(CN5CCC(=O)NC5=O)c4)CC3)cc2)C1 [Compound 393]
1 to 30	–	CN1C[C@H](Nc2cnn(C)c(=O)c2Cl)C[C@H](c2ccc(CN3CCC(c4ccc5c(c4)C(=O)N(C4CCC(=O)NC4=O)C5=O)C(F)(F)C3)cc2)C1 (stereo partly shown) [Compound 392]
1 to 30	–	C[C@H](Nc1nn(C)c(=O)n(C)c1=O)[C@H](c1ccc(C(=O)N2CCC3(CC2)CCN(c2ccc(C4CCC(=O)NC4=O)cc2)CC3)cc1)N(C)C (stereo partly drawn) [Compound 431, 6-(((1S,2S)-1-(dimethylamino)-1-(4-(9-(4-(2,6-dioxopiperidin-3-yl)phenyl)-3,9-diazaspiro[5.5]undecane-3-carbonyl)phenyl)propan-2-yl)amino)-2,4-dimethyl-1,2,4-triazine-3,5(2H,4H)-dione]
